Measured values published in patent US6630310B1, “Assay for binding between carbohydrate and glycolipid” (Biopolymer Engineering Pharmaceutical, Inc., priority 1996, dated 2003).

Tests used:
[1] = test system: human leukocyte membranes; test: Direct binding of radioactively labeled underivatized, aqueous soluble β(1-3)-glucan to human leukocyte membranes (time course, concentration-dependence, Scatchard)
Protocol: Bound radioactively labeled underivatized, aqueous soluble β(1-3)-glucan was separated from unbound ligand by centrifugation through a double layer density gradient, and the membrane pellet was solubilized and radioactivity determined. Equilibrium binding was achieved after 60 minutes at 37° C. at a concentration of 1 μg/ml radioactively labeled underivatized, aqueous soluble β(1-3)-glucan (FIG. 1).
Membrane-associated radioactivity was determined following centrifugation of the reaction mixture through a sucrose/oil density gradient as described in the Examples. Specific binding was calculated by subtracting non-specific binding from total binding. […]
Membranes were diluted to 2 to 5 mg/ml in HBSS with and without 1 mg/ml BSA. […] The tubes were spun at 15,000×g for 4-5 minutes and the tips containing the membrane pellets were removed, incubated in 300 μl SOLVABLE™ (New England Nuclear, Boston, Mass.) overnight at 50° C. to dissolve the pellet, and then radioactivity determined by liquid scintillation counting. No radioactivity was found in the oil layer in the absence of added membranes. […]

[2] = test system: receptor for underivatized, aqueous soluble β(1-3)-glucan on human leukocyte membranes; test: Competition of ^3H-PGG-Glucan binding to human leukocyte membranes (oil/sucrose binding assay)
Protocol: Aminated glucan was prepared by reductive amination of curdlan and provided by Dr. Rolph Seljelid (University of Tromsφ, Tromsφ, Norway).
At the end of the incubation, 100 μl aliquots of reaction mixture were layered on top of a double layer density gradient consisting of 100 μl dibutyl phthalate (lower layer) and 100 μl 8% sucrose in PBS (upper layer) in 400 μl centrifuge tubes (Brinkman). The tubes were spun at 15,000×g for 4-5 minutes and the tips containing the membrane pellets were removed, incubated in 300 μl SOLVABLE™ (New England Nuclear, Boston, Mass.) overnight at 50° C. to dissolve the pellet, and then radioactivity determined by liquid scintillation counting. […] Alternatively, membranes were centrifuged directly in their incubation tubes at 15,000×g for 4-5 minutes at 37° C., the pellet washed with HBSS, then pellets solubilized and radioactivity determined by liquid scintillation counting.

[3] = Competition of ^3H-PGG-Glucan binding to GalCer II
Protocol: Lactosyl ceramide or the sample to be measured was suspended in ethanol. Aliquots as specified were added in triplicate to the wells of a 96-well plate and air dried. The following components were premixed, then 100 μL was added to each well: saline (10 μL) or unlabelled, underivatized, aqueous soluble β(1-3)-glucan (10 μL of a 10 mg/ml stock), ^3H-underivatized, aqueous soluble β(1-3) glucan (10 μL of a 10 μg/ml stock), and HBSS (80 μL). Plates were incubated at 37° C. for 1.5 to 2 hours, then supernatants were removed from each well and discarded. Wells were rinsed with HBSS (200 μL) and SOLVABLE™ (100 μL) was added. The plate was incubated at 60° C. for 5 minutes, then supernatants were removed and counted.

[4] = test system: neutrophil (human blood leukocyte) membranes; test: ^3H-PGG-Glucan binding to neutrophil membranes; conditions: PMN versus mononuclear cells
Protocol: The distribution of the receptor for underivatized, aqueous soluble β(1-3)-glucan across various cell lines and human tissues was determined by assessing the binding of radioactively labeled underivatized, aqueous soluble β(1-3)-glucan to membranes derived from a variety of cell types (see Table 2). The amount of radioactively labeled underivatized, aqueous soluble β(1-3)-glucan binding is expressed as mean±standard deviation in ng/mg membrane protein. The non-specific binding is defined as radioactively labeled underivatized, aqueous soluble β(1-3)-glucan bound in the presence of greater than 100-fold excess unlabeled underivatized, aqueous soluble β(1-3)-glucan. The specific binding is determined by (Total Binding)−(Non-Specific Binding), with the number in parenthesis in Table 2 representing the percent total binding. Quantitation of complement receptor 3 (CR3) was carried out by flow cytometry using fluorescently-labeled anti-CD11b, and data are expressed as mean channel fluorescence (MCF) in arbitrary fluorescence units; background fluorescence for isotype controls were subtracted. The neutrophil sample was greater than 95 percent neutrophils by histology. […]
Membranes were diluted to 2 to 5 mg/ml in HBSS with and without 1 mg/ml BSA. […] No radioactivity was found in the oil layer in the absence of added membranes. […]

In the case of “underivatized, aqueous soluble β(1-3)-glucan [PGG-Glucan]”, the “binding to its receptor at room temperature or below (in words)” value [1] is reported as “does not bind”, the “competition for ^3H-underivatized, aqueous soluble β(1-3)-glucan binding to HLM (in words)” value ([2]; FIG. 14) is reported as “competes” and the “% Control Binding” value ([2]; addition at 0.1 mg/ml, ^3H-PGG-Glucan binding to human leukocyte membranes) is reported as 22%. For the same substance, the “% Control Binding” value ([3]; ligand 0.01 mg hexose/mL) was 23.6%, the “% Control Binding” value ([3]; ligand 0.1 mg hexose/mL) was 3.0% and the “% Control Binding” value ([3]; ligand 1.0 mg hexose/mL) was 1.4%. The “specific binding of human peripheral blood PMN relative to mononuclear cells” value [4] was “five to ten”.
